Data: patent US20240245673A1, “Papain-like protease (PLpro) inhibitors” (Pfizer Inc., priority 2022, published 2024)
pIC50: −log10 of the molar value.

Molecular target: SARS-CoV-2 Papain like protease (PLpro) (Severe acute respiratory syndrome coronavirus 2 (2019-nCoV) (SARS-CoV-2), UniProt P0DTD1)
Experiment: Papain Like Protease (PLpro) biochemical assay with profluorogenic substrate Z-RLRGG-AMC
Conditions: SARS-CoV-2 PLpro 6.25 nM, 25 μM Z-RLRGG-AMC substrate, 60 minute reaction; read-out: IC50

Compound	pIC50
Cc1ccc(NC(=O)[C@H]2CCCCN2)cc1C(=O)NC(C)c1cc(N)nc2ccccc12 (mixture of isomers) [Example 25, (R)—N-(3-(((RS)-1-(2-aminoquinolin-4-yl)ethyl)carbamoyl)-4-methylphenyl)piperidine-2-carboxamide]	7.00
Cc1ccc(NC(=O)[C@H]2CCCCN2)cc1C(=O)NC(C)c1cc(-c2ccn[nH]2)cc2ccccc12 (mixture of isomers) [Example 65, (2R)-N-(3-((1-(3-(1H-pyrazol-5-yl)naphthalen-1-yl)ethyl)carbamoyl)-4-methylphenyl)piperidine-2-carboxamide]	7.68
COCC(OCc1cscn1)c1ccc(C(=O)N[C@H](C)c2cc(-c3cnn(C)c3)nc3ccccc23)c(C)c1 (mixture of isomers) [Example 331, 4-(2-methoxy-1-(thiazol-4-ylmethoxy)ethyl)-2-methyl-N-((R)-1-(2-(1-methyl-1H-pyrazol-4-yl)quinolin-4-yl)ethyl)benzamide]	> 9.00
Cc1ccc(CN)cc1C(=O)N[C@H](C)c1cc(-c2cnn(C)c2)cc2ccccc12 (single isomer, unassigned) [Example 8]	7.60
Cc1ccc(CN)cc1C(=O)N[C@H](C)c1cc(-c2cnn(C)c2)cc2ccccc12 (single isomer, unassigned) [Example 9]	5.41
Cc1ccc(NC(=O)[C@H]2CCCCN2)cc1C(=O)N[C@H](C)c1cc(N)nc2ccccc12 (single isomer, unassigned) [Example 27, (R)—N-(3-(((R*)-1-(2-aminoquinolin-4-yl)ethyl)carbamoyl)-4-methylphenyl)piperidine-2-carboxamide]	7.24
Cc1ccc(NC(=O)[C@H]2CCCCN2)cc1C(=O)N[C@H](C)c1cc(N)nc2ccccc12 (single isomer, unassigned) [Example 28, (R)—N-(3-(((R*)-1-(2-aminoquinolin-4-yl)ethyl)carbamoyl)-4-methylphenyl) piperidine-2-carboxamide]	5.26
Cc1ccc(NC(=O)[C@H]2CCCCN2)cc1C(=O)N[C@H](C)c1cc(-n2ccnn2)nc2ccccc12 (single isomer, unassigned) [Example 29, (R)—N-(3-(((R*)-1-(2-(1H-1,2,3-triazol-1-yl)quinolin-4-yl)ethyl)carbamoyl)-4-methylphenyl)piperidine-2-carboxamide]	7.00
Cc1ccc(NC(=O)[C@H]2CCCCN2)cc1C(=O)N[C@H](C)c1cc(-n2ccnn2)nc2ccccc12 (single isomer, unassigned) [Example 30, (R)—N-(3-(((R*)-1-(2-(1H-1,2,3-triazol-1-yl)quinolin-4-yl)ethyl)carbamoyl)-4-methylphenyl)piperidine-2-carboxamide]	5.11
Cc1ccc(NC(=O)[C@H]2CCCCN2)cc1C(=O)NC(C)c1cc(-c2cn[nH]c2)cc2ccccc12 (single isomer, unassigned) [Example 52, (R)—N-(3-(((R*)-1-(3-(1H-pyrazol-4-yl)naphthalen-1-yl)ethyl)carbamoyl)-4-methylphenyl)piperidine-2-carboxamide]	7.96
Cc1ccc(NC(=O)[C@H]2CCCCN2)cc1C(=O)NC(C)c1cc(-c2cn[nH]c2)cc2ccccc12 (single isomer, unassigned) [Example 53, (R)—N-(3-(((R*)-1-(3-(1H-pyrazol-4-yl)naphthalen-1-yl)ethyl)carbamoyl)-4-methylphenyl)piperidine-2-carboxamide]	6.32
Cc1ccc(NC(=O)[C@H]2CCCCN2)cc1C(=O)N[C@H](C)c1cc(-c2cnn(C)c2)cc2ccccc12 (single isomer, unassigned) [Example 66]	8.10
Cc1ccc(NC(=O)[C@H]2CCCCN2)cc1C(=O)N[C@H](C)c1cc(-c2cnn(C)c2)cc2ccccc12 (single isomer, unassigned) [Example 67]	6.57
Cc1ccc(NC(=O)[C@H]2CCCCN2)cc1C(=O)N[C@H](C)c1cc(-c2ccn[nH]2)cc2ccccc12 (single isomer, unassigned) [Example 68]	8.05
